Measured values taken from publication PMC12948427 (The Journal of Clinical Investigation, 2025).
“And” between values parts separate entries of the source, which are not always exact repeats. Equal values may be shown once. Read-outs that look alike come from different tables or passages of the source.

Assays:
MHV [1] = system: MHV
MHV [2] = assay: microbe, parasite or virus in culture; type: cell-based, mouse hepatitis virus (MHV); conditions: Murine coronavirus, 24 h, read-out: EC50 (IFA)
SARS-CoV-2 wild-type = assay: microbe, parasite or virus in culture; type: cell-based
[3] = type: cell-based
HCoV-NL63 = assay: In vitro antiviral activity assay (IFA), HCoV-NL63; type: cell-based; conditions: for Inhibition rate (IFA): Fig 5C, MOI 0.1, 48 h
WIV1 [4] = type: cell-based, bat coronavirus WIV1
WIV1 [5] = assay: microbe, parasite or virus in culture; type: cell-based, bat coronavirus WIV1; conditions: Bat coronavirus, 48 h, read-out: EC50 (IFA)
HCoV-OC43 = assay: In vitro antiviral activity assay (IFA), HCoV-OC43; type: cell-based; conditions: for Inhibition rate (IFA): Fig 5E, MOI 0.1, 48 h
HCoV-229E = assay: In vitro antiviral activity assay (IFA), HCoV-229E; type: cell-based; conditions: for Inhibition rate (IFA): Fig 5F, MOI 0.1, 48 h
MHV [6] = type: cell-based, mouse hepatitis virus (MHV)
MHV [7] = assay: microbe, parasite or virus in culture; conditions: Murine coronavirus, 24 h, read-out: EC50, rescue of coronavirus-induced cytopathic effects
SARS-CoV-2 Omicron BA.5 = assay: microbe, parasite or virus in culture; type: cell-based; conditions: Severe acute respiratory syndrome coronavirus 2, 24 h, read-out: EC50 (IFA)
[8] = biological target: M161 (SARS-CoV-2 M 135-161 peptide fused with HIV-TAT) (HIV | SARS-CoV-2) (UniProt P0DTC5); assay: SPR
[9] = biological target: M146 (SARS-CoV-2 M 135-146 peptide fused with HIV-TAT) (HIV | SARS-CoV-2) (UniProt P0DTC5); assay: SPR
[10] = biological target: M161 (SARS-CoV-2 M 135-161 peptide fused with HIV-TAT) (HIV | SARS-CoV-2) (UniProt P0DTC5); assay: SPR; remark: listed apart in the source
[11] = biological target: M146 (SARS-CoV-2 M 135-146 peptide fused with HIV-TAT) (HIV | SARS-CoV-2) (UniProt P0DTC5); assay: SPR; remark: listed apart in the source

hHGS 1-390-6 × HIS protein, sequence (O14964 1-390): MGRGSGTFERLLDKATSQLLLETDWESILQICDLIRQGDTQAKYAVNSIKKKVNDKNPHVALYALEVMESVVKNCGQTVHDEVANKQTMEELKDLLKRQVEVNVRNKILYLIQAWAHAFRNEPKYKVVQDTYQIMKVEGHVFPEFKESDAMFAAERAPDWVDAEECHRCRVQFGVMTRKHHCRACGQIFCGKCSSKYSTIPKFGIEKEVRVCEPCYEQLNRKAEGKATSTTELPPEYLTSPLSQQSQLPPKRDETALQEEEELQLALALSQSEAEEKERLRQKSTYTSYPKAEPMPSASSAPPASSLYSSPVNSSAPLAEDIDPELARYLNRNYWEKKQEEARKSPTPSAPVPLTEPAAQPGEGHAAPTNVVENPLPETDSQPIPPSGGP
M161 (SARS-CoV-2 M 135-161 peptide fused with HIV-TAT) (HIV | SARS-CoV-2), sequence (P0DTC5 135-161 limits assumed): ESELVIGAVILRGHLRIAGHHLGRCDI

CCC(CC)COC(=O)[C@H](C)N[P@](=O)(OC[C@H]1O[C@@](C#N)(c2ccc3c(N)ncnn23)[C@H](O)[C@@H]1O)Oc1ccccc1 [RDV, remdesivir]
cell viability, Figures S9A, B, D-F (17Cl-1 cells; concentration 0.01): 103.896 and 102.857 | cell viability, Figures S9A, B, D-F (17Cl-1 cells; concentration 0.03): 100 | cell viability, Figures S9A, B, D-F (17Cl-1 cells; concentration 0.1): 100 | cell viability, Figures S9A, B, D-F (17Cl-1 cells; concentration 0.3): 100 | cell viability, Figures S9A, B, D-F (17Cl-1 cells; concentration 1): 100 | cell viability, Figures S9A, B, D-F (17Cl-1 cells; concentration 3): 100 | cell viability, Figures S9A, B, D-F (17Cl-1 cells; concentration 10): 100 | cell viability, Figures S9A, B, D-F (17Cl-1 cells; concentration 25): 100 | viability of infected cells (rescue of cytopathic effect), Figures S9G-L (MHV [1]; concentration 10): 46.7323 and 45.5347 and 44.3372 | viability of infected cells (rescue of cytopathic effect), Figures S9G-L (MHV [1]; concentration 30): 45.5347 and 43.8916 and 43.4181 | viability of infected cells (rescue of cytopathic effect), Figures S9G-L (MHV [1]; concentration 100): 50.492 and 47.7906 and 49.378 | viability of infected cells (rescue of cytopathic effect), Figures S9G-L (MHV [1]; concentration 300): 59.7939 and 57.0925 and 55.143 | viability of infected cells (rescue of cytopathic effect), Figures S9G-L (MHV [1]; concentration 1000): 78.2027 and 84.5804 and 83.9955 | viability of infected cells (rescue of cytopathic effect), Figures S9G-L (MHV [1]; concentration 3000): 102.237 and 100.176 and 102.46 | viability of infected cells (rescue of cytopathic effect), Figures S9G-L (MHV [1]; concentration 10000): 103.491 and 100.789 and 102.906 | viability of infected cells (rescue of cytopathic effect), Figures S9G-L (MHV [1]; concentration 25000): 101.903 and 103.017 and 102.042 | EC50 (MHV [2]): 1.29 µM | Inhibition rate (IFA) (SARS-CoV-2 wild-type): -18.2121% | EC50 (SARS-CoV-2 wild-type; Severe acute respiratory syndrome coronavirus 2, 24 h, read-out: EC50 (IFA)): 3.51 µM | Inhibition, time-of-drug-addition (Figures S12A, S12B) ([3]; 1h, concentration 30 (unit not given)): 5.191 and 6.604 and 3.913 | Inhibition, time-of-drug-addition (Figures S12A, S12B) ([3]; 1h, concentration 300 (unit not given)): 29.4212 and 36.852 and 30.2123 | Inhibition, time-of-drug-addition (Figures S12A, S12B) ([3]; 1h, concentration 1000 (unit not given)): 94.0553 and 94.9808 and 93.9778 | Inhibition, time-of-drug-addition (Figures S12A, S12B) ([3]; 1h, concentration 3000 (unit not given)): 100.171 and 99.7032 and 100.277 | Inhibition, time-of-drug-addition (Figures S12A, S12B) ([3]; 1h, concentration 10000 (unit not given)): 100.334 and 99.9318 and 99.6732 | Inhibition, time-of-drug-addition (Figures S12A, S12B) ([3]; 1h, concentration 25000 (unit not given)): 99.7405 and 99.6154 and 100.895 | Inhibition, time-of-drug-addition (Figures S12A, S12B) ([3]; 3h, concentration 300 (unit not given)): 9.79 and 17.6203 and 16.0643 | Inhibition, time-of-drug-addition (Figures S12A, S12B) ([3]; 3h, concentration 1000 (unit not given)): 55.9963 and 60.6001 and 59.2495 | Inhibition, time-of-drug-addition (Figures S12A, S12B) ([3]; 3h, concentration 3000 (unit not given)): 88.3762 and 86.7679 and 87.568 | Inhibition, time-of-drug-addition (Figures S12A, S12B) ([3]; 3h, concentration 10000 (unit not given)): 90.2121 and 88.9101 and 87.2358 | Inhibition, time-of-drug-addition (Figures S12A, S12B) ([3]; 3h, concentration 25000 (unit not given)): 90.2507 and 90.1885 and 92.1218 | Inhibition, time-of-drug-addition (Figures S12A, S12B) ([3]; 5h, concentration 1000 (unit not given)): 25.3228 and 41.8171 and 37.9682 | Inhibition, time-of-drug-addition (Figures S12A, S12B) ([3]; 5h, concentration 3000 (unit not given)): 84.9456 and 81.9798 and 79.5741 | Inhibition, time-of-drug-addition (Figures S12A, S12B) ([3]; 5h, concentration 10000 (unit not given)): 96.9121 and 98.7645 and 101.081 | Inhibition, time-of-drug-addition (Figures S12A, S12B) ([3]; 5h, concentration 25000 (unit not given)): 101.735 and 102.093 and 102.226 | Inhibition, time-of-drug-addition (Figures S12A, S12B) ([3]; 7h, concentration 3000 (unit not given)): 42.654 and 32.1868 and 38.6066 | Inhibition, time-of-drug-addition (Figures S12A, S12B) ([3]; 7h, concentration 10000 (unit not given)): 72.2116 and 77.3057 and 82.6181 | Inhibition, time-of-drug-addition (Figures S12A, S12B) ([3]; 7h, concentration 25000 (unit not given)): 95.7566 and 91.5378 and 92.3496 | antiviral activity versus time of treatment start ([3]; RTB 25 μM or RDV 5 μM added at 0, 2, 4 or 6 hpi): decreased in a time-dependent manner | Inhibition rate (IFA) (HCoV-NL63; conc 10 (unit not given)): -13.7402% and -16.2366% and -15.0261% | Inhibition rate (IFA) (HCoV-NL63; conc 300 (unit not given)): 80.1311% and 63.4462% and 86.5422% | Inhibition rate (IFA) (HCoV-NL63; conc 1000 (unit not given)): 98.8533% and 99.4472% and 99.9344% | Inhibition rate (IFA) (HCoV-NL63; conc 3000 (unit not given)): 99.4236% and 99.6729% and 98.5431% | Inhibition rate (IFA) (HCoV-NL63; conc 10000 (unit not given)): 99.8898% and 100.315% and 100.324% | Inhibition rate (IFA) (HCoV-NL63; conc 25000 (unit not given)): 100.095% and 100.184% and 100.326% | EC50 (HCoV-NL63; Human coronavirus NL63, 48 h, read-out: EC50 (IFA)): 0.2 µM | extracellular viral gRNA levels (RT-qPCR) (WIV1 [4]): 1.00 and 2.00 | EC50 (WIV1 [5]): 2.42 µM | EC50 (HCoV-OC43; Betacoronavirus 1, OC43, 48 h, read-out: EC50 (IFA)): 0.41 µM | Inhibition rate (IFA) (HCoV-OC43; conc 10 (unit not given)): 50.23% and 41.56% and 35.15% | Inhibition rate (IFA) (HCoV-OC43; conc 30 (unit not given)): 35.85% and 33.9% and 36.83% | Inhibition rate (IFA) (HCoV-OC43; conc 100 (unit not given)): 54.42% and 40.68% and 45.58% | Inhibition rate (IFA) (HCoV-OC43; conc 300 (unit not given)): 65.9% and 68.1% and 71.65% | Inhibition rate (IFA) (HCoV-OC43; conc 1000 (unit not given)): 93.48% and 93.42% and 95.53% | Inhibition rate (IFA) (HCoV-OC43; conc 3000 (unit not given)): 103.3% and 99.46% and 99.73% | Inhibition rate (IFA) (HCoV-OC43; conc 10000 (unit not given)): 112.73% and 104.65% and 109.25% | Inhibition rate (IFA) (HCoV-OC43; conc 25000 (unit not given)): 117.32% and 112.33% and 115.73% | Inhibition rate (IFA) (HCoV-229E; conc 30 (unit not given)): -0.99% and -1.45% and 0.82% | Inhibition rate (IFA) (HCoV-229E; conc 100 (unit not given)): -0.44% and -1.37% and -2.88% | Inhibition rate (IFA) (HCoV-229E; conc 300 (unit not given)): 11.16% and 13% and 6.71% | Inhibition rate (IFA) (HCoV-229E; conc 1000 (unit not given)): 47.55% and 40.71% and 45.97% | Inhibition rate (IFA) (HCoV-229E; conc 3000 (unit not given)): 81.01% and 82.05% and 81.07% | Inhibition rate (IFA) (HCoV-229E; conc 10000 (unit not given)): 97.22% and 97.53% and 97.6% | Inhibition rate (IFA) (HCoV-229E; conc 25000 (unit not given)): 98.73% and 98.28% | EC50 (HCoV-229E; Human coronavirus 229E, 48 h, read-out: EC50 (IFA)): 1.01 µM | Extracellular MHV gRNA (Figure S11A) (MHV [6]; Ctr 17Cl-1 cells, 24 hpi): 1.417 and 1.434 and 1.4484 | Extracellular MHV gRNA (Figure S11A) (MHV [6]; Ctr 17Cl-1 cells, 48 hpi): 2.342 and 2.426 and 2.427 | Extracellular MHV gRNA (Figure S11A) (MHV [6]; Ctr 17Cl-1 cells, 72 hpi): 2.913 and 2.938 and 2.965 | Extracellular MHV gRNA (Figure S11A) (MHV [6]; Hgs-KO1 17Cl-1 cells, 24 hpi): 0.1732 and 0.2504 and 0.2945 | Extracellular MHV gRNA (Figure S11A) (MHV [6]; Hgs-KO1 17Cl-1 cells, 48 hpi): 0.5159 and 0.4955 and 0.5011 | Extracellular MHV gRNA (Figure S11A) (MHV [6]; Hgs-KO1 17Cl-1 cells, 72 hpi): 0.5763 and 0.5575 and 0.5302 | Extracellular MHV gRNA (Figure S11A) (MHV [6]; Hgs-KO2 17Cl-1 cells, 48 hpi): 0.243 and 0.2742 and 0.2718 | Extracellular MHV gRNA (Figure S11A) (MHV [6]; Hgs-KO2 17Cl-1 cells, 72 hpi): 0.4771 and 0.48 and 0.4728 | antiviral activity in Hgs-KO cells (MHV [6]; MHV, Hgs-KO 17Cl-1, RTB 25 μM or RDV 5 μM, compared with DMSO-treated Hgs-KO cells): maintained potent antiviral activity | EC50 (MHV [7]): 0.69 µM | EC50 (SARS-CoV-2 Omicron BA.5): 1.73 µM

hHGS 1-390-6 × HIS protein (from UniProt O14964 1-390) (domain or fragment)
Kd [8]: 0.00384 µM | Kd [9]: 0.00573 µM | Kd [10]: 0.83 µM | Kd [11]: 0.21 µM
